Active and inactive are the calls of the source. The rule behind the calls is not given here.
Key:
[1] = Drug uptake in nucleus of human SK-N-FI cells using Cy7-labeled compound incubated for 4 hrs by confocal microscopy; assay type: ADME, subcellular
SK-N-FI [2] = experiment: Antitumor activity against human SK-N-FI cells xenografted in Ncr nude mouse assessed as inhibition of tumor growth by measuring suppression of tumor weight at 3 mg/kg, sc dosed daily for 15 days relative to control; assay type: functional; conditions: for inhibition in vivo at 3 mg/kg: 360 h, read-out: TGI
Integrin alpha-V/beta-3 [3] = target: T1, Integrin alpha-V/beta-3 (Homo sapiens, UniProt P05106+P06756); experiment: Binding affinity to purified integrin alphaVbeta3 receptor (unknown origin) incubated for 2 hrs; assay type: protein-complex assay
Target sequence in this assay (P05106 27-788 limits assumed): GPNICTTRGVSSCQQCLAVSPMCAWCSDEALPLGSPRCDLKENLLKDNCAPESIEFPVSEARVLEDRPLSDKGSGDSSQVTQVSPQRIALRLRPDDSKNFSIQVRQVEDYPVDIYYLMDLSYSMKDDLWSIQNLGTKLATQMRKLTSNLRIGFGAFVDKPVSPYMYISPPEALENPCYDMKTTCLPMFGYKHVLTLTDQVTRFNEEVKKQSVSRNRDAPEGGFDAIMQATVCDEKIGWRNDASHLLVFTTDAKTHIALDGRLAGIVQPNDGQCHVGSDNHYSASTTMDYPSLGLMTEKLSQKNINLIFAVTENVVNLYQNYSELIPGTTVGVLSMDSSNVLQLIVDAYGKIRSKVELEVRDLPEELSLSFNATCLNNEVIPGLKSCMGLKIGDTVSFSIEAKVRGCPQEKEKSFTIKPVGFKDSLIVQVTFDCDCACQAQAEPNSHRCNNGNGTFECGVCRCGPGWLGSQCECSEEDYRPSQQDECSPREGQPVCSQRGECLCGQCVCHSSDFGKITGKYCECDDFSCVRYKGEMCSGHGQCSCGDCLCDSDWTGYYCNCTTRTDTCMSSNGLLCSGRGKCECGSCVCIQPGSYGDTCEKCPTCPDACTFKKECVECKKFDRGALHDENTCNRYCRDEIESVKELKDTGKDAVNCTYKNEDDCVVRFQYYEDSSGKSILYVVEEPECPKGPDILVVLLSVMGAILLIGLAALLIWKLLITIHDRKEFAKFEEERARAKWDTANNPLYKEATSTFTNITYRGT
Target sequence in this assay (P06756 31-889 limits assumed): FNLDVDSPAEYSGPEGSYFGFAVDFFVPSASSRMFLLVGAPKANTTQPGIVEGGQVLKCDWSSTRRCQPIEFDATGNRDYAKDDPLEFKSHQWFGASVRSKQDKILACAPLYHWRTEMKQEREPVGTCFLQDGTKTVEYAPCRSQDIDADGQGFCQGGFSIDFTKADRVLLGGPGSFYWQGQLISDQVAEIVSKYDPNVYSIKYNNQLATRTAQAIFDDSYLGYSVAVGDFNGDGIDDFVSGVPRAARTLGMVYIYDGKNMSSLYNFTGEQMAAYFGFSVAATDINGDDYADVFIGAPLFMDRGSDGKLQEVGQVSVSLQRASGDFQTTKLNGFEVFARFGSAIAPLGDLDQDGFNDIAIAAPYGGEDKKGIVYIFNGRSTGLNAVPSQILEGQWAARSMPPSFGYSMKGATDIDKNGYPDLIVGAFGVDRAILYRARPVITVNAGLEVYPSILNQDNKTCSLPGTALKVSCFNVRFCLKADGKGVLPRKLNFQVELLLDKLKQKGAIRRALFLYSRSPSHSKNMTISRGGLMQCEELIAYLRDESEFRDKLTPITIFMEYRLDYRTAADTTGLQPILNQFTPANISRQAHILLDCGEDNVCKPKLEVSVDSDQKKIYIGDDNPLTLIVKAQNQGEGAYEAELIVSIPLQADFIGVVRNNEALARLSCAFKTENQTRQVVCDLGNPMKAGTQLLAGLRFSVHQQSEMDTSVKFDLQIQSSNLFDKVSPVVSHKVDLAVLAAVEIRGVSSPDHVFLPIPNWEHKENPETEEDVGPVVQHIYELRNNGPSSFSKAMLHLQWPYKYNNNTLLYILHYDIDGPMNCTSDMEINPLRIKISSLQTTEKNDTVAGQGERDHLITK
Target sequence in this assay (P06756 891-1048 limits assumed): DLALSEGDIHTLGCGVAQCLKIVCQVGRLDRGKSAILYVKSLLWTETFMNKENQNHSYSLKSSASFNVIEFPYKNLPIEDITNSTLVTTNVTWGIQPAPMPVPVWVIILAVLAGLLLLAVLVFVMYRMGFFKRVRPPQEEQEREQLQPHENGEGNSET

[4] = Drug uptake in human SK-N-FI cells using Cy7-labeled compound incubated for 4 hrs by confocal microscopy; assay type: ADME, cell-based
SK-N-FI [5] = experiment: Inhibition of cell proliferation of human SK-N-FI cells at 30 to 100 uM incubated for 48 hrs relative to control; assay type: functional
SK-N-FI [6] = experiment: Antitumor activity against human SK-N-FI cells xenografted in Ncr nude mouse assessed as inhibition of tumor growth at 1 to 10 mg/kg, sc dosed daily up to 15 days relative to control; assay type: functional
SK-N-FI [7] = experiment: Antitumor activity against human SK-N-FI cells xenografted in Ncr nude mouse assessed as increase in neuroblastoma tumor apoptosis and necrosis at 1 to 10 mg/kg, sc dosed daily for 15 days relative to control; assay type: functional
SK-N-FI [8] = experiment: Antitumor activity against human SK-N-FI cells xenografted in Ncr nude mouse assessed as inhibition of neuroblastoma tumor cell viability at 1 to 10 mg/kg, sc dosed daily for 15 days relative to control; assay type: functional
Integrin alpha-V/beta-3 [9] = target: T1, Integrin alpha-V/beta-3; experiment: Binding affinity to […] integrin alphaVbeta3 in human SK-N-FI cells using Cy7-labeled compound incubated for 4 hrs by confocal microscopy; assay type: cell-based
SK-N-FI [10] = experiment: Inhibition of cell proliferation of human SK-N-FI cells at 30 to 100 uM incubated for 24 hrs relative to control; assay type: functional

Structure (SMILES)	Drug uptake [1]	inhibition in vivo at 3 mg/kg (SK-N-FI [2]) [%]	IC50 (Integrin alpha-V/beta-3 [3]) [µM]	TGI (SK-N-FI [2])	Drug uptake [4] [%]	inhibition (INH) (SK-N-FI [5])	TGI (SK-N-FI [6])	Activity (SK-N-FI [7])	inhibition (INH) (SK-N-FI [8])	Activity (Integrin alpha-V/beta-3 [9])	inhibition (INH) (SK-N-FI [10]) [%]
O=C(O)Cc1cc(I)c(Oc2cc(I)c(O)c(I)c2)c(I)c1 [TETRAC]	Active	40 to 50	0.0624								
N=C(N)NCc1ccccc1				inactive	90 to 100						
N=C(N)NCc1ccc(OCCOCCOCCOCCOCCOCCOCCn2cc(COc3c(I)cc(Oc4c(I)cc(CC(=O)O)cc4I)cc3I)nn2)cc1	Not Active	80 to 100				50 - 60%	80 - 100%	80 - 100%	80 - 100%	Active	30

— ChEMBL document CHEMBL4613328, “Dual Targeting of Norepinephrine Transporter (NET) Function and Thyrointegrin αvβ3 Receptors in the Treatment of Neuroblastoma” (J Med Chem, 2020)
